How the values were obtained:
Cbl-b [1] = molecular target: T1, Cbl-b (Homo sapiens, UniProt Q13191); assay: Cbl-b inhibition assay (Cbl-b activity assay, FRET, Biological Example 1; 100 mM NaCl, 60 nM Src kinase); assay type: biochemical; conditions: upper bound stated in text lists; read-out: IC50 values in the Cbl-b inhibition assay of Biological Example 1
Source text: FIG. 1A and FIG. 1B show a series of diagrams depicting the activity assay utilized to assay inhibition of Cbl-b activity by a Cbl-b inhibitor. FIG. 1A: The activity assay mixture comprises an N-terminal biotinylated Avi-tagged Cbl-b, an E2 enzyme (i.e., UbcH5B) irreversibly conjugated to Bodipy-Fluorescein tagged ubiquitin (i.e., UbcH5B-Ub), a Src kinase, streptavidin-terbium, and assay buffer. Phosphorylation of Cbl-b by the Src kinase allows UbcH5B-Ub to bind to Cbl-b and bring the Bodipy-Fluorescein tagged ubiquitin in proximity to the streptavidin-terbium bound to the N-terminal biotinylated Avi-tagged Cbl-b. […] FIG. 1B: In the presence of a Cbl-b inhibitor, such as one described herein, Cbl-b is unable to bind UbcH5B-Ub. The lack of a FRET signal indicates Cbl-b is inhibited by the Cbl-b inhibitor. Ub indicates ubiquitin; N-Avi indicates biotinylated Avi-tag at the N-terminus of Cbl-b; inhibitor indicates Cbl-b inhibitor.
The lack of a FRET signal indicates Cbl-b is inhibited by the Cbl-b inhibitor. In FIG. 1A and FIG. 1B, Ub indicates ubiquitin; N-Avi indicates biotinylated Avi-tag at the N-terminus of Cbl-b; and inhibitor indicates Cbl-b inhibitor.

Cbl-b [2] = molecular target: T1, Cbl-b; assay: Cbl-b activity assay (Cbl-b inhibition assay), TR-FRET of Cbl-b interaction with UbcH5B-Ub; assay type: biochemical; conditions: assay buffer with 100 mM NaCl, 60 nM Src kinase; read-out: Cbl-b activity IC50
In short: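 TR-FRET readout of Cbl-b binding to Bodipy-fluorescein N-terminally labeled Ub conjugated to UbcH5B C85K, measured with compound present. After compound incubation, 60 nM Src kinase with 1 mM ATP and 5 mM MgCl2 (final) was added for 1.5 h, then a further 1 h incubation; asterisked values used 50 mM NaCl buffer and 30 nM Src.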

T1 sequence (Q13191 36-427): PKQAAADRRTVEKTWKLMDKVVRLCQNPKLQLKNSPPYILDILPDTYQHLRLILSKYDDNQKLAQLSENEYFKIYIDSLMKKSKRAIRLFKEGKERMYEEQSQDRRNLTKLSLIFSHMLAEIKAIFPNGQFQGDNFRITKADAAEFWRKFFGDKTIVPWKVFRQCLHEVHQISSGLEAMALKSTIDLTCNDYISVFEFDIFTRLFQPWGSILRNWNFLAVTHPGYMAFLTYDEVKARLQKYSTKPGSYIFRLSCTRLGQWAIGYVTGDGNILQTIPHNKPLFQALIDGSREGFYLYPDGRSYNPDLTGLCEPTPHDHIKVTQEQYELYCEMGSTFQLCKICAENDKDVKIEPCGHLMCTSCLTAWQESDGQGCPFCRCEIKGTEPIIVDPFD

| Compound | IC50 (Cbl-b [1]) | IC50 (Cbl-b [2]) |
| --- | --- | --- |
| C[C@H](Sc1nncn1C)c1ccnc(NC(=O)c2cc(Br)cc(C(F)(F)F)n2)c1 [Compound 119, 4-bromo-N-[4-[(1S)-1-[(4-methyl-1,2,4-triazol-3-yl)sulfanyl]ethyl]-2-pyridyl]-6-(trifluoromethyl)pyridine-2-carboxamide] | ≤ 1000 nM | 301 to 1000 nM |
| Cc1cc(C(=O)Nc2cccc(C3(Cc4[nH]ncc4C)COC3)c2)nc(C2CC2)n1 [Compound 510, 2-cyclopropyl-6-methyl-N-(3-{3-[(4-methyl-1H-pyrazol-3-yl)methyl]oxetan-3-yl}phenyl)pyrimidine-4-carboxamide] | ≤ 100 nM | < 100 nM |
| Cn1cnnc1CC1(c2cccc(N3Cc4c(cc(CN5CCc6ncccc6C5)cc4C(F)(F)F)C3=O)c2)COC1 [Example 709, 6-((7,8-dihydro-1,6-naphthyridin-6(5H)-yl)methyl)-2-(3-(3-((4-methyl-4H-1,2,4-triazol-3-yl)methyl)oxetan-3-yl)phenyl)-4-(trifluoromethyl)isoindolin-1-one] | ≤ 100 nM | < 100 nM |
| Cn1cnnc1CC1(c2cccc(N3Cc4c(cc(CN5Cc6ccc(Cl)cc6C5)cc4C(F)(F)F)C3=O)c2)COC1 [Example 659, 6-((5-chloroisoindolin-2-yl)methyl)-2-(3-(3-((4-methyl-4H-1,2,4-triazol-3-yl)methyl)oxetan-3-yl)phenyl)-4-(trifluoromethyl)isoindolin-1-one] | ≤ 100 nM | < 100 nM |
| Cn1cnnc1CC1(c2cccc(N3Cc4c(cc(CN5CC[C@@H](F)[C@H](F)C5)cc4C(F)(F)F)C3=O)c2)COC1 [Example 626b, 6-(((3R,4R)-3,4-difluoropiperidin-1-yl)methyl)-2-(3-(3-((4-methyl-4H-1,2,4-triazol-3-yl)methyl)oxetan-3-yl)phenyl)-4-(trifluoromethyl)isoindolin-1-one] | ≤ 100 nM | < 100 nM |
| C[C@H](Cc1ncco1)c1cccc(N2Cc3c(cccc3C(F)(F)F)C2=O)c1 [Compound 261, (R)-2-(3-(1-(oxazol-2-yl)propan-2-yl)phenyl)-4-(trifluoromethyl)isoindolin-1-one] | ≤ 10000 nM | 3000 to 10000 nM |
| Cn1cnnc1CC1(c2cccc(N3Cc4c(cc(C(O)C(F)(F)F)cc4C(F)(F)F)C3=O)c2)COC1 (centres unmarked) [Example 580, 2-(3-(3-((4-Methyl-4H-1,2,4-triazol-3-yl)methyl)oxetan-3-yl)phenyl)-6-(2,2,2-trifluoro-1-hydroxyethyl)-4-(trifluoromethyl)isoindolin-1-one] | ≤ 100 nM | < 100 nM |
| Cn1cnnc1CC1(c2cccc(N3Cc4c(cc(CN5CCOC(C)(C)C5)cc4C(F)(F)F)C3=O)c2)COC1 [Example 665, 6-((2,2-dimethylmorpholino)methyl)-2-(3-(3-((4-methyl-4H-1,2,4-triazol-3-yl)methyl)oxetan-3-yl)phenyl)-4-(trifluoromethyl)isoindolin-1-one] | ≤ 100 nM | < 100 nM |
| CC(Cc1nncn1C)c1cc(F)cc(N2Cc3c(cccc3C(F)(F)F)C2=O)c1 (centres unmarked) [Compound 281] | ≤ 500 nM | 100 to 300 nM |
| C[C@H](Sc1nncn1C)c1cccc(NC(=O)c2cc(C(=O)N3CCC[C@H]3C)ccn2)c1 [Compound 142, N-(3-((S)-1-((4-methyl-4H-1,2,4-triazol-3-yl)thio)ethyl)phenyl)-4-((R)-2-methylpyrrolidine-1-carbonyl)picolinamide] | ≤ 10000 nM | > 10000 nM |
| C[C@H](Sc1nncn1C)c1cccc(NC(=O)c2cc(C(=O)N3CCC(S(C)(=O)=O)C3)ccn2)c1 (some centres unmarked) [Compound 158, N-(3-((A)-1-((4-methyl-4H-1,2,4-triazol-3-yl)thio)ethyl)phenyl)-4-(3-(methylsulfonyl)pyrrolidine-1-carbonyl)picolinamide] | ≤ 10000 nM | 3000 to 10000 nM |
| C[C@@H]1CN(Cc2cc3c(c(C(F)(F)F)c2)CN(c2cccc(C4(Cc5nncn5C)COC4)c2)C3=O)C[C@H](C)O1 [Example 664, 6-(((cis)-2,6-dimethylmorpholino)methyl)-2-(3-(3-((4-methyl-4H-1,2,4-triazol-3-yl)methyl)oxetan-3-yl)phenyl)-4-(trifluoromethyl)isoindolin-1-one] | ≤ 100 nM | < 100 nM |
| COc1ccc2c(c1)CN(Cc1cc3c(c(C(F)(F)F)c1)CN(c1cccc(C4(Cc5nncn5C)COC4)c1)C3=O)CC2 [Example 661, 6-((7-methoxy-3,4-dihydroisoquinolin-2(1H)-yl)methyl)-2-(3-(3-((4-methyl-4H-1,2,4-triazol-3-yl)methyl)oxetan-3-yl)phenyl)-4-(trifluoromethyl)isoindolin-1-one] | ≤ 100 nM | < 100 nM |
| Cc1cc(C(=O)Nc2cccc(C3=C(c4nncn4C)CCC3)c2)nc(C2CC2)n1 [Compound 518, 2-cyclopropyl-6-methyl-N-(3-(2-(4-methyl-4H-1,2,4-triazol-3-yl)cyclopent-1-en-1-yl)phenyl)pyrimidine-4-carboxamide] | ≤ 300 nM | 100 to 300 nM |
| CCOC(Cc1nncn1C)c1cccc(N2Cc3c(cccc3C(F)(F)F)C2=O)c1 (centres unmarked) [Compound 291, 2-(3-(1-ethoxy-2-(4-methyl-4H-1,2,4-triazol-3-yl)ethyl)phenyl)-4-(trifluoromethyl)isoindolin-1-one] | ≤ 10000 nM | 3000 to 10000 nM |
| CC(Sc1nncn1C)c1cccc(N2Cc3ccc(C(C)(C)O)cc3C2=O)c1 (centres unmarked) [Compound 165, 6-(1-hydroxy-1-methyl-ethyl)-2-[3-[1-[(4-methyl-1,2,4-triazol-3-yl)sulfanyl]ethyl]phenyl]isoindolin-1-one] | ≤ 10000 nM | 3000 to 10000 nM |
| Cn1cnnc1CC1(c2cccc(N3Cc4c(cc(CN5CC[C@@H]6OCC[C@@H]6C5)cc4C(F)(F)F)C3=O)c2)COC1 (relative stereo) [Example 708, rel-6-[(3aR,7aS)-hexahydro-2H-furo[3,2-c]pyridin-5-ylmethyl]-2-(3-{3-[(4-methyl-1,2,4-triazol-3-yl)methyl]oxetan-3-yl}phenyl)-4-(trifluoromethyl)-3H-isoindol-1-one] | ≤ 100 nM | < 100 nM |
| CN(c1cc2c(c(C(F)(F)F)c1)CN(c1cccc([C@@](C)(F)C(F)(F)c3nncn3C)c1)C2=O)[C@H]1CNC[C@@H]1F [Example 550, 6-(((3S,4S)-4-fluoropyrrolidin-3-yl)(methyl)amino)-2-(3-((R)-1,1,2-trifluoro-1-(4-methyl-4H-1,2,4-triazol-3-yl)propan-2-yl)phenyl)-4-(trifluoromethyl)iso-indolin-1-one] | ≤ 100 nM | < 100 nM |
| CC(Cn1[nH]cnc1=O)c1cccc(NC(=O)c2cccc(C(F)(F)F)n2)c1 (centres unmarked) [Compound 219, N-[3-[1-methyl-2-(3-oxo-1H-1,2,4-triazol-2-yl)ethyl]phenyl]-6-(trifluoromethyl)pyridine-2-carboxamide] | ≤ 10000 nM | 3000 to 10000 nM |
| Cc1ccc(C(=O)Nc2cccc([C@H](C)[C@H](O)c3nncn3C)c2)nc1C1CC1 [Compound 288, Trans-6-cyclopropyl-N-(3-(1-hydroxy-1-(4-methyl-4H-1,2,4-triazol-3-yl)propan-2-yl)phenyl)-5-methylpicolinamide] | ≤ 10000 nM | 3000 to 10000 nM |
| CNC(=O)c1ccc2c(c1)C(=O)N(c1cc(C(C)Sc3nncn3C)ccn1)C2 (centres unmarked) [Compound 173, N-methyl-2-(4-[1-[(4-methyl-4H-1,2,4-triazol-3-yl)sulfanyl]ethyl]pyridin-2-yl)-3-oxo-2,3-dihydro-1H-isoindole-5-carboxamide] | ≤ 10000 nM | 3000 to 10000 nM |
| CC(c1nncn1C)C1(c2cccc(N3Cc4c(cc(CN5CCC6(CC6)C5)cc4C(F)(F)F)C3=O)c2)COC1 (centres unmarked) [Example 701, 6-((5-azaspiro[2.4]heptan-5-yl)methyl)-2-(3-(3-(1-(4-methyl-4H-1,2,4-triazol-3-yl)ethyl)oxetan-3-yl)phenyl)-4-(trifluoromethyl)isoindolin-1-one] | ≤ 1000 nM | 301 to 1000 nM |
| C[C@H](Sc1nncn1C)c1cccc(NC(=O)c2cccc(N(C)C)c2)c1 [Compound 26, (S)-3-(Dimethylamino)-N-(3-(1-((4-methyl-4H-1,2,4-triazol-3-yl)thio)ethyl)phenyl)benzamide] | ≤ 10000 nM | > 10000 nM |
| Cn1cnnc1CC(C)(C)c1cccc(NC(=O)c2ccnc(C(F)(F)F)n2)c1 [Compound 285, N-(3-(2-methyl-1-(4-methyl-4H-1,2,4-triazol-3-yl)propan-2-yl)phenyl)-2-(trifluoromethyl)pyrimidine-4-carboxamide] | ≤ 500 nM | 100 to 300 nM |
| Cc1c[nH]nc1S[C@@H](C)c1ccnc(NC(=O)c2ccc3ccccc3n2)c1 [Compound 128a, (S)-N-(4-(1-((4-methyl-1H-pyrazol-3-yl)thio)ethyl)pyridin-2-yl)quinoline-2-carboxamide] | ≤ 10000 nM | 1000 to 3000 nM |

— patent US20220324835A1 (Nurix Therapeutics, Inc., priority 2018, published 2022)
